Laboratory results published in US8202856B2 (Merck Serono SA, priority 2007, dated 2012).

target: S1P1 receptor (Homo sapiens, UniProt P21453); assay: 35S-GTPγS binding, membranes from CHO cells expressing S1P1; assay type: biochemical; conditions: CHO cell membranes expressing S1P1
Procedure: Receptor binding assay: Membranes were prepared from CHO cells expressing S1P1 or S1P3 for use in ligand and 35S-GTPTS binding studies. Cells were suspended in 50 mM TRIS, pH 7.4, 2 mM EDTA, 250 mM Sucrose (buffer A) and 1× Complete protease inhibitor cocktail (Roche), and disrupted at 4° C. by nitrogen decompression using a cell disruption bomb (Parr Instrument). Following centrifugation at 1000 RPM for 10 min at 4° C., the supernatant was suspended in buffer A and centrifuged again at 19000 RPM for 60 min at 4° C. The pellet was then suspended in 10 mM HEPES, pH 7.4, 1 mM EDTA, 250 mM Sucrose (Buffer B), and 1× Complete EDTA-free protease inhibitor cocktail and homogenized using a potter. Membranes were flash frozen in liquid nitrogen and stored at −80° C. [33P]sphingosine 1-phosphate (3000 Ci/mmol; American Radiolabeled Chemicals, Inc.) was added to test compounds in DMSO. Membranes and WGA SPA beads (GE Healthcare) were added to give a final volume of 100 μl in 96-well plates with assay concentrations of […] [33P]sphingosine 1-phosphate (respectively for S1P1 or S1P3), 50 mM HEPES, pH 7.5, 5 mM MgCl2, 100 mM NaCl, 0.4% fatty acid-free BSA, 1-5 μg/well of proteins and 100 μg/well of WGA SPA beads. Binding was performed for 60 min at room temperature on a shaker and bound radioactivity was measured on a PerkinElmer 1450 MicroBeta counter. Specific binding was calculated by subtracting remaining radioactivity in the presence of 1000-fold excess of unlabeled S1P. Binding data were analyzed using the GraphPad Prism program.
Measurements of ^35S-GTPγS Binding: Membranes (1 to 10 μg protein) prepared as described above, were incubated in 96-well Scintiplates (PerkinElmer) with test compounds diluted in DMSO, in 180 μl of 20 mM HEPES, pH 7.4, 10 mM MgCl2, 2 μg/well Saponin, 0.2% fatty acid free BSA (Assay buffer), 140 mM NaCl and 1.7 μM GDP. The assay was initiated with the addition of 20 μl of 1.5 nM [35S]-GTPγS (1100 Ci/mmol; GE Healthcare) in assay buffer. After 60 min incubation at 30° C. on a shaker, plates were centrifuged for 10 min at 2000 RPM. Supernatant was discarded and membrane bound radioactivity was measured on a PerkinElmer 1450 MicroBeta counter. Triplicate samples were averaged and expressed as response relative to S1P activation in absence of compound (n=2).

Chain of S1P1 receptor (P21453 whole entry): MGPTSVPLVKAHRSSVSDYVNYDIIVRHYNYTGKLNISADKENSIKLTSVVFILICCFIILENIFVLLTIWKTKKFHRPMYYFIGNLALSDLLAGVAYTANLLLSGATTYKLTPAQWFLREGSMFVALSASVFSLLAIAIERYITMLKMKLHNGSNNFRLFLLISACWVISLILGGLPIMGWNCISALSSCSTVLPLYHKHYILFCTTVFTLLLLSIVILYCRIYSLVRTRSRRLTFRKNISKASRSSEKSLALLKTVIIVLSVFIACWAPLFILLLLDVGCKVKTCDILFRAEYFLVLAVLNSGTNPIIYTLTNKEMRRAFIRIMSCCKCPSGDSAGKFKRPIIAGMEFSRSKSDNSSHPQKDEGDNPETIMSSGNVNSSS

Question: With `Fc1ccccc1-n1nnc(-c2nc(-c3cccc(Cn4ccnc4)c3)no2)c1-c1ccncc1` [Example 82, 4-(1-(2-fluorophenyl)-4-{3-[3-(1H-imidazol-1-ylmethyl)phenyl]-1,2,4-oxadiazol-5-yl}-1H-1,2,3-triazol-5-yl)pyridine] as the compound, how does the EC50 read?
Answer: Its EC50 is 176 nM.

Question: For `CS(=O)(=O)c1cccc(-c2noc(-c3nnn(-c4ccccc4F)c3-c3ccccn3)n2)c1` [Example 84, 2-(1-(2-fluorophenyl)-4-{3-[3-(methylsulfonyl)phenyl]-1,2,4-oxadiazol-5-yl}-1H-1,2,3-triazol-5-yl)pyridine], which EC50 is on record?
Answer: Its EC50 is 418 nM.

Question: `Fc1ccccc1-c1noc(-c2nnn(-c3ccccc3F)c2C2CC2)n1` [Example 85, 5-[5-cyclopropyl-1-(2-fluorophenyl)-1H-1,2,3-triazol-4-yl]-3-(2-fluorophenyl)-1,2,4-oxadiazole] was tested. Which EC50 did it give?
Answer: The EC50 was 451 nM.

Question: `Fc1ccccc1-n1nnc(-c2nc(-c3cccc(Cn4cncn4)c3)no2)c1-c1ccccn1` [Example 86, 2-(1-(2-fluorophenyl)-4-{3-[3-(1H-1,2,4-triazol-1-ylmethyl)phenyl]-1,2,4-oxadiazol-5-yl}-1H-1,2,3-triazol-5-yl)pyridine] was tested. Which EC50 did it give?
Answer: Its EC50 is 751 nM.

Question: With `Fc1ccccc1-n1nnc(-c2nc(-c3ccoc3)no2)c1-c1ccncc1` [Example 88, 4-{1-(2-fluorophenyl)-4-[3-(3-furyl)-1,2,4-oxadiazol-5-yl]-1H-1,2,3-triazol-5-yl}pyridine] as the compound, how does the EC50 read?
Answer: The EC50 was 945 nM.

Question: `Fc1ccccc1-n1nnc(-c2nc(-c3ccco3)no2)c1-c1ccncc1` [Example 89, 4-{1-(2-fluorophenyl)-4-[3-(2-furyl)-1,2,4-oxadiazol-5-yl]-1H-1,2,3-triazol-5-yl}pyridine] was tested. Which EC50 did it give?
Answer: The EC50 was 1030 nM.

Question: `COCc1c(-c2nc(-c3cccc4[nH]ccc34)no2)nnn1-c1ccccc1F` [Example 90, 4-{5-[1-(2-fluorophenyl)-5-(methoxymethyl)-1H-1,2,3-triazol-4-yl]-1,2,4-oxadiazol-3-yl}-1H-indole] was tested. Which EC50 did it give?
Answer: The EC50 was 204 nM.

Question: With `CN(C)Cc1c(-c2nc(-c3cc(F)ccc3F)no2)nnn1-c1ccccc1F` [Example 91, 1-[4-[3-(2,5-difluorophenyl)-1,2,4-oxadiazol-5-yl]-1-(2-fluorophenyl)-1H-1,2,3-triazol-5-yl]-N,N-dimethylmethanamine] as the compound, how does the EC50 read?
Answer: The EC50 was 443 nM.

Question: For `COCc1c(-c2nc(-c3cccc(S(N)(=O)=O)c3)no2)nnn1-c1ccccc1F` [Example 93, 3-{5-[1-(2-fluorophenyl)-5-(methoxymethyl)-1H-1,2,3-triazol-4-yl]-1,2,4-oxadiazol-3-yl}benzenesulfonamide], which EC50 is on record?
Answer: The EC50 was 754 nM.

Question: For `CN(C)Cc1cccc(-c2noc(-c3nnn(-c4ccccc4F)c3-c3ccncc3)n2)c1` [Example 94, 1-(3-{5-[1-(2-fluorophenyl)-5-pyridin-4-yl-1H-1,2,3-triazol-4-yl]-1,2,4-oxadiazol-3-yl}phenyl)-N,N-dimethylmethanamine], which EC50 is on record?
Answer: Its EC50 is 226 nM.

Question: For `Fc1ccccc1-n1nnc(-c2nc(-c3ccccc3)no2)c1-c1ccncc1` [Example 95, 4-[1-(2-fluorophenyl)-4-(3-phenyl-1,2,4-oxadiazol-5-yl)-1H-1,2,3-triazol-5-yl]pyridine], which EC50 is on record?
Answer: Its EC50 is 13 nM.

Question: `Fc1ccc(-c2noc(-c3nnn(-c4ccccc4F)c3-c3ccncc3)n2)cc1` [Example 96, 4-{1-(2-fluorophenyl)-4-[3-(4-fluorophenyl)-1,2,4-oxadiazol-5-yl]-1H-1,2,3-triazol-5-yl}pyridine] was tested. Which EC50 did it give?
Answer: Its EC50 is 138 nM.

Question: How did the EC50 turn out when `Fc1ccccc1-n1nnc(-c2nc(-c3ccc(CN4CCOCC4)cc3)no2)c1-c1ccncc1` [Example 98, 4-(4-{5-[1-(2-fluorophenyl)-5-pyridin-4-yl-1H-1,2,3-triazol-4-yl]-1,2,4-oxadiazol-3-yl}benzyl)morpholine] was run?
Answer: The EC50 was 439 nM.

Question: For `Fc1ccccc1-n1nnc(-c2nc(-c3c(F)cccc3F)no2)c1-c1ccncc1` [Example 99, 4-[4-[3-(2,6-difluorophenyl)-1,2,4-oxadiazol-5-yl]-1-(2-fluorophenyl)-1H-1,2,3-triazol-5-yl]pyridine], which EC50 is on record?
Answer: The EC50 was 106 nM.

Question: `Fc1ccccc1-n1nnc(-c2nc(-c3cccc(Br)c3)no2)c1-c1ccncc1` [Example 100, 4-[4-[3-(3-bromophenyl)-1,2,4-oxadiazol-5-yl]-1-(2-fluorophenyl)-1H-1,2,3-triazol-5-yl]pyridine] was tested. Which EC50 did it give?
Answer: The EC50 was 18 nM.

Question: How did the EC50 turn out when `Fc1ccccc1-n1nnc(-c2nc(-c3cccc(C(F)(F)F)c3)no2)c1-c1ccncc1` [Example 103, 4-(1-(2-fluorophenyl)-4-{3-[3-(trifluoromethyl)phenyl]-1,2,4-oxadiazol-5-yl}-1H-1,2,3-triazol-5-yl)pyridine] was run?
Answer: The EC50 was 17 nM.

Question: For `Fc1ccccc1-n1nnc(-c2nc(-c3ccc4c(c3)CNCC4)no2)c1-c1ccncc1` [Example 105, 7-{5-[1-(2-fluorophenyl)-5-pyridin-4-yl-1H-1,2,3-triazol-4-yl]-1,2,4-oxadiazol-3-yl}-1,2,3,4-tetrahydroisoquinoline], which EC50 is on record?
Answer: Its EC50 is 26 nM.

Question: `O=C1Cc2cc(-c3noc(-c4nnn(-c5ccccc5F)c4-c4ccncc4)n3)ccc2N1` [Example 106, 5-{5-[1-(2-fluorophenyl)-5-pyridin-4-yl-1H-1,2,3-triazol-4-yl]-1,2,4-oxadiazol-3-yl}-1,3-dihydro-2H-indol-2-one] was tested. Which EC50 did it give?
Answer: The EC50 was 18 nM.

Question: For `Cc1ccc(-c2noc(-c3nnn(-c4ccccc4F)c3-c3ccncc3)n2)cc1` [Example 107, 4-{1-(2-fluorophenyl)-4-[3-(4-methylphenyl)-1,2,4-oxadiazol-5-yl]-1H-1,2,3-triazol-5-yl}pyridine], which EC50 is on record?
Answer: The EC50 was 49 nM.

Question: Which EC50 does the source give for `OCc1ccc(-c2noc(-c3nnn(-c4ccccc4F)c3-c3ccncc3)n2)cc1` [Example 108, (4-{5-[1-(2-fluorophenyl)-5-pyridin-4-yl-1H-1,2,3-triazol-4-yl]-1,2,4-oxadiazol-3-yl}phenyl)methanol] here?
Answer: Its EC50 is 21 nM.

Question: With `Fc1ccccc1-n1nnc(-c2nc(-c3ccc(C(F)(F)F)cc3)no2)c1-c1ccncc1` [Example 109, 4-(1-(2-fluorophenyl)-4-{3-[4-(trifluoromethyl)phenyl]-1,2,4-oxadiazol-5-yl}-1H-1,2,3-triazol-5-yl)pyridine] as the compound, how does the EC50 read?
Answer: The EC50 was 402 nM.

Question: Which EC50 does the source give for `Fc1ccccc1-n1nnc(-c2nc(-c3ccc(C4OCCO4)cc3)no2)c1-c1ccncc1` [Example 110, 4-[4-{3-[4-(1,3-dioxolan-2-yl)phenyl]-1,2,4-oxadiazol-5-yl}-1-(2-fluorophenyl)-1H-1,2,3-triazol-5-yl]pyridine] here?
Answer: Its EC50 is 136 nM.

Question: With `OCc1cccc(-c2noc(-c3nnn(-c4ccccc4F)c3-c3ccncc3)n2)c1` [Example 111, (3-{5-[1-(2-fluorophenyl)-5-pyridin-4-yl-1H-1,2,3-triazol-4-yl]-1,2,4-oxadiazol-3-yl}phenyl)methanol] as the compound, how does the EC50 read?
Answer: The EC50 was 54 nM.

Question: `Fc1ccc(F)c(-c2noc(-c3nnn(-c4ccccc4F)c3CNCC3CC3)n2)c1` [Example 112, 1-cyclopropyl-N-{[4-[3-(2,5-difluorophenyl)-1,2,4-oxadiazol-5-yl]-1-(2-fluorophenyl)-1H-1,2,3-triazol-5-yl]methyl}methanamine] was tested. Which EC50 did it give?
Answer: Its EC50 is 806 nM.

Question: For `NC(=O)C1CCN(Cc2ccc(-c3noc(-c4nnn(-c5ccccc5F)c4-c4ccncc4)n3)cc2)CC1` [Example 115, 11-(4-{5-[1-(2-fluorophenyl)-5-pyridin-4-yl-1H-1,2,3-triazol-4-yl]-1,2,4-oxadiazol-3-yl}benzyl)piperidine-4-carboxamide], which EC50 is on record?
Answer: The EC50 was 246 nM.

Question: Which EC50 does the source give for `Nc1c(Cl)cc(-c2noc(-c3nnn(-c4ccccc4F)c3-c3ccncc3)n2)cc1Cl` [Example 117, 2,6-dichloro-4-{5-[1-(2-fluorophenyl)-5-pyridin-4-yl-1H-1,2,3-triazol-4-yl]-1,2,4-oxadiazol-3-yl}aniline] here?
Answer: The EC50 was 9 nM.

Question: Which EC50 does the source give for `Nc1ccc(-c2noc(-c3nnn(-c4ccccc4F)c3-c3ccncc3)n2)cn1` [Example 118, 5-{5-[1-(2-fluorophenyl)-5-pyridin-4-yl-1H-1,2,3-triazol-4-yl]-1,2,4-oxadiazol-3-yl}pyridin-2-amine] here?
Answer: The EC50 was 131 nM.

Question: Which EC50 does the source give for `Fc1ccccc1-n1nnc(-c2nc(-c3cnccn3)no2)c1-c1ccncc1` [Example 119, 2-{5-[1-(2-fluorophenyl)-5-pyridin-4-yl-1H-1,2,3-triazol-4-yl]-1,2,4-oxadiazol-3-yl}pyrazine] here?
Answer: The EC50 was 1260 nM.

Question: How did the EC50 turn out when `Fc1ccccc1-n1nnc(-c2nc(-c3ccc(C(F)(F)F)nc3)no2)c1-c1ccncc1` [Example 120, 5-{5-[1-(2-fluorophenyl)-5-pyridin-4-yl-1H-1,2,3-triazol-4-yl]-1,2,4-oxadiazol-3-yl}-2-(trifluoromethyl)pyridine] was run?
Answer: Its EC50 is 754 nM.

Question: Which EC50 does the source give for `COc1ccc(F)cc1-c1noc(-c2nnn(-c3ccccc3F)c2-c2ccncc2)n1` [Example 122, 4-[4-[3-(5-fluoro-2-methoxyphenyl)-1,2,4-oxadiazol-5-yl]-1-(2-fluorophenyl)-1H-1,2,3-triazol-5-yl]pyridine] here?
Answer: The EC50 was 56 nM.
